Laboratory results from patent US20250161308A1, “Methods of Treating Covid-Related Disorders” (priority 2022, published 2025).
Like-named read-outs stand apart in the source and are kept apart here.

Legend:
[1] = test system: scopolamine-induced spatial memory deficits in rats; experiment: Scopolamine-induced spatial memory deficit, Morris water maze (3 mg/kg scopolamine, 8 days); assay type: in vivo, rat
[2] = test system: Rat hippocampal neurons; experiment: Synaptogenesis assay; assay type: cell-based; details: for Significant increase in: Synapses: Table 4 study
[3] = test system: patient in need of treatment for long COVID; experiment: Treating long COVID (Example 1), clinical screening assessments; assay type: in vivo, human; details: patients with long COVID
Experimental: A Compound of Formula (I), such as Compound 2a or Compound 1a, or a pharmaceutically acceptable salt thereof, is administered orally to a patient in need of treatment for long COVID.
In some embodiments, a patient in need of treatment for long COVID is assessed with ADCS-ADL23. The ADCS-ADL23 (Galasko, 1997) is a 23-item assessment of functional impairment in terms of activities of daily living administered to the support person/caregiver. It comprises 23 questions about the subject's involvement and level of performance across items representing daily living. The questions range from basic to instrumental activities of daily living. Each item is rated from the highest level of independent performance to complete loss. The total score range is from 0 to 78, with lower scores indicating greater functional impairment.
A patient in need of treatment for long COVID is assessed with ERP P300. ERP P300 is a quantitative, unbiased, non-invasive method of recording task-related brain processing speed, elicited by external stimuli, e.g., an oddball auditory stimulus, and is a well-established functional biomarker, particularly of working memory access (Ally, 2006). ERP P300 is characterized by a stereotyped series of voltage deflections occurring after the respective odd tone to be counted, with early features (<100 msec) corresponding to unconscious sensory transmission (auditory cortex, N100), and later features produced by cognitive processing in the ventral attentional network, i.e., P300, referring to the large positive deflection at roughly 300 msec in healthy adults (young or elderly). The P300 latency is sensitive to detecting reduced synaptic transmission related to cognitive decline in AD patients and other dementias (Olichney, 2011).

[4] = test system: Rat hippocampal neurons; experiment: Neurite outgrowth assay; assay type: cell-based
[5] = test system: Rat primary cortical neuron cultures; assay type: cell-based; details: for Significance of neuroprotection vs 1 uM LPS: 24 h LPS

CCC(C)CN1CC2N(C(=O)c3ccc(OC(F)F)cc3)CCC(=O)N2[C@@H](C)C1=O (some centres unmarked) [Compound 2a]
Cognitive Improvement ([1]; 0.1 mg/kg PO): − (− indicates post-test p-value above 0.06)
Cognitive Improvement ([1]; 1 mg/kg PO): +++ (+++ indicates post-test p-value below 0.01)
Cognitive Improvement ([1]; 10 mg/kg PO): − (− indicates post-test p-value above 0.06)
synapse counts (in words) [2]: increase synapse counts at all concentrations tested
Significant increase in: Synapses ([2]; 1 nM): ++++ (++++ = p < 0.0001)
Significant increase in: Synapses ([2]; 10 nM): ++++ (++++ = p < 0.0001)
Significant increase in: Synapses ([2]; 100 nM): ++++ (++++ = p < 0.0001)
patient outcome as measured by one or more of the screening assessments [3]: reduces the rate of decline, stabilizes, or improves patient outcome
safety and tolerability [3]: acceptable safety and tolerability
neurite length / extension of neurites (in words) [4]: increase neurite length at a concentration of 10 nM
Significant increase in: Neurite length ([4]; 10 nM, Table 4 study): ++++ (++++ = p < 0.0001)
Significance of neuroprotection vs 1 uM LPS ([5]; 0.1 nM): +++ (+++ indicates p<0.001)
Significance of neuroprotection vs 1 uM LPS ([5]; 1 nM): +++ (+++ indicates p<0.001)
Significance of neuroprotection vs 1 uM LPS ([5]; 10 nM): +++ (+++ indicates p<0.001)
Significance of neuroprotection vs 1 uM LPS ([5]; 100 nM): +++ (+++ indicates p<0.001)
Significance of neuroprotection vs 1 uM LPS ([5]; 1 μM): +++ (+++ indicates p<0.001)
protection of primary neurons from LPS-stimulated inflammatory toxicity ([5]; at at least one dose tested): protected primary neurons from LPS-stimulated inflammatory toxicity
